“Also recorded” adds a separate entry of the source.
Columns and labels:
Type in all cases: in vivo, human
[1] = test system: patient with active rheumatoid arthritis; experiment: Phase 2 clinical trial: condition of the RA in the same patient; conditions: one patient; blinded dose 0.1, 1.0 or 4.0 mg q 12 h oral, 12 weeks
Source text: The patient took part in a phase 2, multicenter, randomized, double-blind, parallel-group, dose-ranging study of the safety and preliminary efficacy of daily IB-MECA administered orally for 12 weeks to patients with active rheumatoid arthritis. The patient is a person with a 7 year history of RA, previously treated with 3 disease-modifying anti-rheumatic drugs (DMARDs), and a history of 2-3 years of dry eyes treated with tear substitutes a few times a day. After a 4 week DMARD washout period, the patient was treated with a blinded dose of IB-MECA—either 0.1, 1.0 or 4.0 mg q 12 h for 12 weeks. They are currently continuing IB-MECA treatment under a long term extension protocol of the original 12 weeks study.

[2] = test system: RA patients who also suffered from Sicca (dry eyes); experiment: Schirmer test in RA patients with Sicca given oral IB-MECA capsules twice daily
Procedure: The IB-MECA was formulated in oval softgel capsules. The capsules contained solutions of IB-MECA in Cremophor RH 40 and Miglyol 812. The capsules contained a dose of 0.1, 1 or 4 mg of IB-MECA, the exact composition of each capsules' type is shown in the following Tabels 1-3: The capsules with IB-MECA were given to patients orally twice daily. All patients had rheumatoid arthritis (RA) and were give IB-MECA within the framework of a clinical study aimed at testing the effect of IB-MECA in modifying RA disease symptoms in these patients. The patients received randomly capsules of one of the above there doses. The patients received the IB-MECA for a period of 12 weeks. 4 out of the treated patients also suffered from Sicca and the effect of IB-MECA on their dry eye symptoms was examined as well. Specifically, four patients at the age 58±4 years who suffered from RA for 8±2 years were followed. At base line, the patients had elevated levels of rheumatoid factor, i.e., 313±120 IU/ml (0<normal<40) and had suffered from dry eyes for 5±1.6 years. Upon treatment with IB-MECA for 6.25±1.1 months, an improvement in Schirmer's test from 8.5±1.4 mm to 15.6±2.9 mm was observed.

[3] = test system: patient with rheumatoid arthritis (RA) and secondary Sjogren symptoms, mainly manifested by dry eye; experiment: Phase 2 clinical trial: dry eye symptoms of one patient with RA and secondary Sjogren symptoms
Source text: A patient with rheumatoid arthritis (RA) and secondary Sjogren symptoms, mainly manifested by dry eye, treated for years with eye drops (tear substitutes) participated in a phase 2 clinical trial with IB-MECA for the treatment of active RA. […] The patient took part in a phase 2, multicenter, randomized, double-blind, parallel-group, dose-ranging study of the safety and preliminary efficacy of daily IB-MECA administered orally for 12 weeks to patients with active rheumatoid arthritis. The patient is a person with a 7 year history of RA, previously treated with 3 disease-modifying anti-rheumatic drugs (DMARDs), and a history of 2-3 years of dry eyes treated with tear substitutes a few times a day. After a 4 week DMARD washout period, the patient was treated with a blinded dose of IB-MECA—either 0.1, 1.0 or 4.0 mg q 12 h for 12 weeks. They are currently continuing IB-MECA treatment under a long term extension protocol of the original 12 weeks study.

[4] = Patient 3, dose 4.0 twice daily oral, 7 months treatment, base line 5

For `CNC(=O)[C@H]1O[C@@H](n2cnc3c(NCc4cccc(I)c4)ncnc32)[C@H](O)[C@@H]1O` [IB-MECA, N^6-(3-iodobenzyl)-adenosine-5′-N-methyluronamide], the “condition of the RA (swollen and tender joints, ESR and CRP, global assessments, pain and disability)” value [1] was “marked improvement”, the “Schirmer test Left eye End of study” value ([2]; Mean of 4 patients, doses 0.1-4.0 twice daily, mean 6.25 months treatment, base line mean 6.75) was 16.5 mm and the “Schirmer test Right eye End of study” value ([2]; Mean of 4 patients, doses 0.1-4.0 twice daily, mean 6.25 months treatment, base line mean 10.25) was 14.75 mm. For the same compound, the “Schirmer test Left eye End of study” value ([2]; Patient 1, dose 0.1 twice daily oral, 4 months treatment, base line 6) was 9 mm, the “Schirmer test Right eye End of study” value ([2]; Patient 1, dose 0.1 twice daily oral, 4 months treatment, base line 14) was 9 mm and the “Schirmer test Left eye End of study” value ([2]; Patient 2, dose 1.0 twice daily oral, 5 months treatment, base line 10) was 32 mm. The “Schirmer test Right eye End of study” value ([2]; Patient 2, dose 1.0 twice daily oral, 5 months treatment, base line 15) was 23 mm, the “Schirmer test Left eye End of study” value [2, 4] was 16 mm and the “Schirmer test Right eye End of study” value [2, 4] was 17 mm. The “Schirmer test Left eye End of study” value ([2]; Patient 4, dose 1.0 twice daily oral, 9 months treatment, base line 6) was 9 mm, the “Schirmer test Right eye End of study” value ([2]; Patient 4, dose 1.0 twice daily oral, 9 months treatment, base line 7) was 10 mm and the “Schirmer's test after treatment” value ([2]; four RA patients, treatment for 6.25±1.1 months, improvement from 8.5±1.4 mm at base line) was 15.6±2.9 mm. The “symptoms of dry eye (secondary Sjogren's syndrome)” value ([3]; blinded dose 0.1, 1.0 or 4.0 mg q 12 h oral, 12 weeks plus extension) was “improved significantly; also recorded: substantial improvement”, the “time of IB-MECA administration after which tear substitutes were no longer needed” value ([3]; patient-reported, blinded dose 0.1, 1.0 or 4.0 mg q 12 h oral) was 3-4 weeks and the “current dry eye symptoms under continued treatment” value ([3]; patient-reported, long term extension protocol) was “no symptoms of dry eye”.

Source: patent publication US7825102B2, “Treatment of dry eye conditions” (Can-Fite Biopharma Ltd., priority 2004, dated 2010)
